According to the CATMoS acute toxicity set (Mansouri et al. 2021):
Where a SMILES comes first, the peptide text is derived from it.

Experiment: GHS categories as the set defines them, by LD50: 1 up to 5, 2 up to 50, 3 up to 300, 4 up to 2000, 5 above 2000 mg/kg
Details: rat; in vivo; po

SMILES | GHS category
CCCCCCCCCCCCCCCCCC(=O)NP(=O)(OC)SC (centres undefined) | 3
CSc1nnc(C(C)(C)C)c(=O)n1/N=C/C(C)C | 5
C[C@]1(Cn2ccnn2)[C@H](C(=O)O)N2C(=O)C[C@H]2S1(=O)=O | 5
CCCBr | 5
CC(=O)Nc1ccccc1CCNC(=O)c1ccc2ccccc2c1O | 5
C=C(C)C(=O)OCC[N+](C)(C)C | 5
O=[N+]([O-])c1ccc(Nc2ccccc2)cc1 | 5
O=C1CCCCCCCCCCCCCCCO1 | 5
CC1=C(C(=O)O)N2C(=O)[C@@H](NC(=O)[C@H](N)c3ccc(O)cc3)[C@H]2SC1 | 5
CCCN(CCC)c1c([N+](=O)[O-])cc(C(C)C)cc1[N+](=O)[O-] | 5
CCC(C)CCCC(C)CCCC(C)C (centres undefined) | 5
CCCCCCCCC=CCCCCCCCC(=O)OCC(COC(=O)CCCCCCCC=CCCCCCCCC)(COC(=O)CCCCCCCC=CCCCCCCCC)COC(=O)CCCCCCCC=CCCCCCCCC (centres undefined) | 5
CC/C(=C(/c1ccc(OCCN(C)C)cc1)c1cccc(O)c1)c1ccccc1 | 5
Nc1c(Oc2ccccc2)cc(O)c2c1C(=O)c1ccccc1C2=O | 5
CCCS(=O)(=O)Nc1ccc(F)c(C(=O)c2cn(C(=O)c3c(Cl)cccc3Cl)c3ncc(Br)cc23)c1F | 5
C=CC(=O)Oc1c(Br)cc(Cl)c2cccnc12 | 5
COC(=O)c1ccc(C(=O)O)cc1[N+](=O)[O-] | 5
C=C(C)C1CCC(C)C(OC(C)=O)C1 (centres undefined) | 5
CCCCOC(=O)C=Cc1ccccc1 | 5
COCC1CN(c2ccc(OCc3cccc(C#N)c3)cc2)C(=O)O1 (centres undefined) | 5
CCCCN1CCCC1=O | 4
CNC(=O)N(C)c1nc2ccccc2s1 | 5
COc1cc(OC)nc(NC(=O)NS(=O)(=O)Nc2ccccc2C(=O)N(C)C)n1 | 5

SMILES | GHS category
O=c1n(CCO)c(=O)n(CCO)c(=O)n1CCO | 5
OCCCCSc1ccc(Cl)cc1 | 4
CN(CC(=O)O)N=O | 5
CCCCCCCCCCCC | 5
CCCCc1nc(C=O)c(Cl)[nH]1 | 5
CCCCCCCCC=CCCCCCCCCCCCC(=O)NCCCN(C)C | 5
COP(=S)(OC)Oc1ccc(Cl)cc1C#N | 4
Oc1cc(Cl)cc(Br)c1 | 5
O=C1CCc2c(cccc2OCCCN2CCC(Cc3ccccc3)CC2)N1 | 4
O=C(O)c1ccc(NC(=O)[C@H](Cc2ccc(O)cc2)NC(=O)c2ccccc2)cc1 | 5
Cc1cccc2ncc(C(=O)NC(C)(C)C)c(=O)n12 | 3
CCC(=O)OCC(C)(C)OC(C)C1CCCC(C)(C)C1 (centres undefined) | 5
CCCNC(=O)C(Cc1ccc(OCCN(CC)CC)cc1)NC(=O)c1ccccc1 (centres undefined) | 4
CCC(=O)CCC1C(C)=CCCC1(C)C (centres undefined) | 5
NCC(=O)N[C@@H](CCC(N)=O)C(=O)O (H-Gly-Gln-OH) | 5
CCCC(=O)c1ccc(N)c(O)c1 | 5
NC(=O)OC[C@@H]1[C@H](NC(=O)/C(=N\OCC(=O)O)c2csc(N)n2)C(=O)N1S(=O)(=O)O | 5
C#CCOC(=O)Nc1nc(N2CC=CCC2)cc2nc(=O)on12 | 5
O=C1c2ccccc2C(=O)c2ccccc21 | 5
CC1C(C)(C)C2=C(C3OCOCC3CC2)C1(C)C (centres undefined) | 5
C=C(C)C1CCC(C)C(O)C1 (centres undefined) | 5
CC(=O)N(C)C(=O)Oc1cccc2c1OC1(CCCCC1)O2 | 4
COc1ccc(-c2ccc(C#N)cc2)cc1 | 5

SMILES | GHS category
CC(=O)OC1CN(C)C(=O)N1c1cc(C(C)(C)C)on1 (centres undefined) | 4
CCCOC(=O)Nc1nc(N2CC=CCC2)cc2nc(=O)on12 | 5
CCCCCCCCCCCCCCCCCC(=O)NCCCCC(NC(=O)CCC(NC(=O)C(C)NC(=O)C(C)OC1C(O)C(CO)OC(O)C1NC(C)=O)C(N)=O)C(=O)O (centres undefined) | 4
O=C1c2ccc3c4ccc5c6c(ccc(c7ccc(c2c37)C(=O)N1CCc1ccccc1)c64)C(=O)N(CCc1ccccc1)C5=O | 5
COc1ccc2c(c1)CCN(c1ccccc1)C2c1ccccc1[N+](=O)[O-] (centres undefined) | 4
O=c1[nH]n(-c2cccc(C(F)(F)F)c2)c2ncccc12 | 4
CCCCCCCCCCCCCCCCCNP1(=S)OCc2cc([N+](=O)[O-])ccc2O1 (centres undefined) | 3
CCCCCCCCCCCCCCCCCC(=O)OCCO | 5
CC(=O)n1c(=O)oc2ccc(Cl)cc21 | 5
CCOC(=O)C1CN(C)C2CCCC(C)N2C1=O (centres undefined) | 5
CCCCCCCCCCN(C)CCCCCCCCCC | 4
CCCCCCCC/C=C\CCCCCCCC(=O)NCC(C)O (centres undefined) | 5
CSCC[C@H](NC(=O)CCSC(=O)c1ccccc1)C(=O)O | 5
O=C1NC(=O)C(c2ccccc2)(c2ccccc2O)N1 (centres undefined) | 5
COc1cccc(OC)c1C(=O)O | 4
COC(=O)c1ccc2c(c1)NC(=O)C2 | 5
COP(=O)(NC(=O)C(C)C)SC (centres undefined) | 4
Cc1cc(C)cc(N2C(=O)c3ccc4c5ccc6c7c(ccc(c8ccc(c3c48)C2=O)c75)C(=O)N(c2cc(C)cc(C)c2)C6=O)c1 | 5
O=C1NC(=O)c2ccccc21 | 5
CCN(CC)c1ccc(N)cc1 | 3
COc1ccc(OC)c(C=O)c1 | 5
C/C=C\[C@@H]1[C@@H](C(=O)OCc2c(F)c(F)c(COC)c(F)c2F)C1(C)C | 5
CN(C)CC(=O)N/N=C/c1c(Cl)nc2n1CCS2 | 4

SMILES | GHS category
COC(=O)[C@H](Cc1ccccc1)NC(=O)[C@@H](N)CC(=O)O (H-Asp-Phe-OMe) | 5
COc1cc2c(cc1OC)C(c1ccccc1Cl)N(c1ccccc1)CC2 (centres undefined) | 4
CCOc1ccc(NC(=O)OC(C)C)cc1OCC | 5
CCOC[C@@H]1[C@@H](O)[C@H](O[C@H]2[C@H](O)[C@@H](OCC)[C@H](O)O[C@@H]2CO)O[C@H](COCC)[C@H]1O | 5
CCN(C(=O)SCc1ccccc1)C(C)C(C)C (centres undefined) | 5
CC1CC(C)C(C)C(C)C1 (centres undefined) | 5
COc1ccc(N)cc1N | 5
CNC(=O)C(=NNc1cccc(Cl)c1)C(C)=O | 5
C/C=C/C=C/CCCCCCCO | 5
CCCCCCOC=O | 5
CCC[C@H]1CC[C@H](c2ccc(O)cc2)CC1 | 5
CC(=O)[C@@]1(O)CC[C@H]2[C@@H]3C=C(Cl)C4=CC(=O)CC[C@]4(C)[C@H]3CC[C@@]21C | 5
O=C(c1ccc(Cl)cc1)n1ccnc1-c1ccccc1 | 4
COc1nc2cc(Cl)ccc2o1 | 4
CNC(=O)Oc1c(C(C)(C)C)cc(C)cc1C(C)(C)C | 5
CCN(CCCCOC(=O)c1ccc(OC)c(OC)c1)C1CCc2cc(OC)ccc2C1 (centres undefined) | 5
CCCCCCCCC(=O)O | 5
CN(C)Cc1ccccc1Cl | 4
FC(F)(F)c1cccc(C2=CCN(CCc3ccc4ccccc4c3)CC2)c1 | 4
CCCCC(C)OP(=S)(OC)OC (centres undefined) | 4
